According to patent US11566007B2, “Ras inhibitors” (Revolution Medicines, Inc., priority 2019, dated 2023):

Columns and labels:
[1] = test system: NCI-H358 cells (K-Ras G12C); assay: Potency assay: pERK in NCI-H358 cells; assay type: cell-based, human; conditions: Homo sapiens, NCI-H358; H358 KRAS G12C; read-out: pERK EC50
How it was run: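 Inhibition of cellular pERK after a 4 h treatment, detected by AlphaLISA or In-Cell Western. IC50 from a four-parameter concentration-response fit.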

KRAS G13D = KRAS G13D (Homo sapiens (Human), UniProt P01116+P62937, G13D); assay: Ras-Raf (BRAF RBD) disruption / FRET / MOA assay, KRAS G13D; assay type: biochemical; conditions: read-out: IC50* KRAS G13D FRET data
Chain of KRAS G13D (P01116-2 other isoform, or with tags, fused parts or gaps G13D): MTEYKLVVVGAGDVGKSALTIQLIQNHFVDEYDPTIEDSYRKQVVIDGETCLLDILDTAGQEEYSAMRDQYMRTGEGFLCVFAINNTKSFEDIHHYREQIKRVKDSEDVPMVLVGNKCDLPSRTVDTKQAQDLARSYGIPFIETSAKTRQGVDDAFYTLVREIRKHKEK
Chain of KRAS G13D (P62937 whole entry): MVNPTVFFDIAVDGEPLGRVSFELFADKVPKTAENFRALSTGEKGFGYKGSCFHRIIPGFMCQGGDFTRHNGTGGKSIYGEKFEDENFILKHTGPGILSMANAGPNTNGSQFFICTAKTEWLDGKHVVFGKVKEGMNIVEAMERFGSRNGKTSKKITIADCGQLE
How it was run: (§1)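 TR-FRET read-out: a drop in ratio relative to DMSO wells marks disruption of the Ras:RAF complex, reported as IC50. Compounds (3-fold series, 10 points, top 30 μM final) incubated 3 h at 25° C before Eu-anti-His 10 nM and APC-anti-GST 50 nM, 1.5 h more.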

K-Ras G13C = K-Ras G13C (Homo sapiens (Human), UniProt P01116+P62937, G13C); assay: Ras-Raf (BRAF RBD) disruption / FRET / MOA assay, KRAS G13C; assay type: biochemical; conditions: KRAS G13C; Ras-Raf disruption/FRET/MOA assay; read-out: IC50* KRAS G13C FRET data
Chain of K-Ras G13C (P01116-2 other isoform, or with tags, fused parts or gaps G13C): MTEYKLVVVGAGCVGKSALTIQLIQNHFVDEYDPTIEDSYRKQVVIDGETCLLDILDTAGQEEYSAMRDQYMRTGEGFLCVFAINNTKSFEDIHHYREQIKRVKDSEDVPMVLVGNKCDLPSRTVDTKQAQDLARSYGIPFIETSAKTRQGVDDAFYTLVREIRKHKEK
Chain of K-Ras G13C (P62937 whole entry): as the sequence (P62937 whole entry) above
How it was run: as §1

Row | Structure (SMILES) | EC50 [1] | IC50 (KRAS G13D) | IC50 (K-Ras G13C)
1 | C=CC(=O)N1CC2(CCCN2C(=O)N(C)[C@H](C(=O)N[C@H]2Cc3nc(cs3)-c3ccc4c(c3)c(c(-c3cccnc3[C@H](C)OC)n4CC)CC(C)(C)COC(=O)[C@@H]3CCCN(N3)C2=O)C(C)C)C1 (atropisomer, axis not shown) [Example A667] | < 5000 nM | 100 to 1000 nM | 100 to 1000 nM
2 | CCn1c(-c2cccnc2[C@H](C)OC)c2c3cc(ccc31)-c1cc(CF)cc(c1)C[C@H](NC(=O)[C@H](C(C)C)N1CC[C@]3(CCN(C(=O)C#CC(C)(C)N(C)C)C3)C1=O)C(=O)N1CCC[C@H](N1)C(=O)OCC(C)(C)C2 (atropisomer, axis not shown) [Example A673] | < 5000 nM | 1000 to 10000 nM | 100 to 1000 nM
3 | CCn1c(-c2cccnc2[C@H](C)OC)c2c3cc(ccc31)-c1cccc(c1)C[C@H](NC(=O)[C@H](C(C)C)N(C)C(=O)C1(F)CCN(C(=O)/C=C/CN(C)C)CC1)C(=O)N1CCC[C@H](N1)C(=O)OCC(C)(C)C2 (atropisomer, axis not shown) [Example A685] | < 5000 nM | 100 to 1000 nM | 100 to 1000 nM
4 | CO[C@@H](C)c1ncccc1-c1c2c3cc(ccc3n1CC(F)(F)F)-c1cccc(c1)C[C@H](NC(=O)[C@H](C(C)C)N1CC[C@]3(CCN(C(=O)C#CC(C)(C)N(C)C)C3)C1=O)C(=O)N1CCC[C@H](N1)C(=O)OCC(C)(C)C2 (atropisomer, axis not shown) [Example A689] | < 5000 nM | 1000 to 10000 nM | 100 to 1000 nM
5 | CCn1c(-c2cccnc2[C@H](C)OC)c2c3cc(ccc31)-c1csc(n1)C[C@H](NC(=O)[C@H](C(C)C)N(C)C(=O)N(C)C1CN(C(=O)/C=C/C3CN(C)C3)C1)C(=O)N1CCC[C@H](N1)C(=O)OCC(C)(C)C2 (atropisomer, axis not shown) [Example A690] | < 5000 nM | 100 to 1000 nM | 100 to 1000 nM
6 | CO[C@@H](C)c1ncccc1-c1c2c3cc(ccc3n1CC(F)(F)F)-c1cccc(c1)C[C@H](NC(=O)[C@@H](COC1CN(C(=O)C#CC3(C)OCCO3)C1)C(C)C)C(=O)N1CCC[C@H](N1)C(=O)OCC(C)(C)C2 (atropisomer, axis not shown) [Example A703] | < 5000 nM | > 10000 nM | 1000 to 10000 nM
7 | C=CC(=O)N1CC(N(C)C(=O)N(C)[C@H](C(=O)N[C@H]2Cc3nc(cs3)-c3ccc4c(c3)c(c(-c3cccnc3[C@H](C)OC)n4CC(F)(F)F)CC(C)(C)COC(=O)[C@@H]3CCCN(N3)C2=O)C(C)C)C1 (atropisomer, axis not shown) [Example A711] | < 5000 nM | 100 to 1000 nM | 10 to 100 nM
8 | CCn1c(-c2cccnc2[C@H](C)OC)c2c3cc(ccc31)-c1csc(n1)C[C@H](NC(=O)[C@@H](COC1CN(C(=O)C#CC(C)(C)N(C)C)C1)C(C)C)C(=O)N1CCC[C@H](N1)C(=O)OCC(C)(C)C2 (atropisomer, axis not shown) [Example A721] | < 5000 nM | > 10000 nM | 1000 to 10000 nM
9 | CO[C@@H](C)c1ncccc1-c1c2c3cc(ccc3n1CC(F)(F)F)-c1cccc(c1)C[C@H](NC(=O)[C@H](C(C)C)N(C)C(=O)[C@H]1CCN(C(=O)C#CC(C)(C)N(C)C)C1)C(=O)N1CCC[C@H](N1)C(=O)OCC(C)(C)C2 (atropisomer, axis not shown) [Example A727] | < 5000 nM | 1000 to 10000 nM | 100 to 1000 nM
10 | CCn1c(-c2cccnc2)c2c3cc(ccc31)-c1csc(c1)C[C@H](NC(=O)[C@H](C(C)C)N(C)C(=O)[C@H]1CCN(C(=O)C#CCN3CCOCC3)C1)C(=O)N1CCC[C@H](N1)C(=O)OCC(C)(C)C2 [Example A205] | < 5000 nM | > 10000 nM | > 10000 nM
11 | C=CC(=O)N1CC[C@H](C(=O)N(C)[C@H](C(=O)N[C@H]2C[C@H]3CN(CCO3)c3ccc4c(c3)c(c(-c3cccnc3COC)n4CC)CC(C)(C)COC(=O)[C@@H]3CCCN(N3)C2=O)C(C)C)C1 [Example A240] | < 5000 nM | > 10000 nM | > 10000 nM
12 | CCn1c(-c2cccnc2[C@H](C)OC)c2c3cc(ccc31)N1CCO[C@@](C)(C[C@H](NC(=O)[C@H](C(C)C)N(C)C(=O)C3(F)CCN(C(=O)C#CC(C)(C)N(C)C)CC3)C(=O)N3CCC[C@H](N3)C(=O)OCC(C)(C)C2)C1 [Example A550] | < 5000 nM | 1000 to 10000 nM | 100 to 1000 nM
13 | C=CC(=O)N1CCO[C@H]2CN(C(=O)N(C)[C@H](C(=O)N[C@H]3C[C@H]4CN(CCO4)c4ccc5c(c4)c(c(-c4cccnc4[C@H](C)OC)n5CC)CC(C)(C)COC(=O)[C@@H]4CCCN(N4)C3=O)C(C)C)C[C@H]21 [Example A562] | < 5000 nM | 1000 to 10000 nM | 100 to 1000 nM
